Values belong to the molecule of their own block, whether it stands above or below them. The source made the active and inactive calls.
What was measured:
[1] = cells; format: functional, cell-based
[2] = cells; format: functional, cell-based; remark: listed apart in the source
[3] = biological target: Fatty acid synthase (Homo sapiens, UniProt P49327); assay: inhibition of human FAS-TE enzyme activity – biochemical, kinetic fluorescence intensity, dose response (AID 624326); format: functional;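 note: rate of fluorescence rise from hydrolysis of a fluorogenic O-methyl fluorescein ester substrate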
[4] = biological target: Cytochrome P450 3A4 (Homo sapiens, UniProt P08684);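 note: CYP3A4 tested as one member of a cytochrome P450 panel screen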
[5] = biological target: Cytochrome P450 2C9 (Homo sapiens, UniProt P11712)
[6] = cells; format: functional, cell-based; remark: listed apart in the source
[7] = biological target: T1, Trace amine-associated receptor 1 (Homo sapiens, UniProt Q96RJ0); assay: Fluorescence-based cell-based high throughput dose response assay to identify agonists of the human trace amine associated receptor 1 (TAAR1).; format: functional
T1 sequence (Q96RJ0 whole entry): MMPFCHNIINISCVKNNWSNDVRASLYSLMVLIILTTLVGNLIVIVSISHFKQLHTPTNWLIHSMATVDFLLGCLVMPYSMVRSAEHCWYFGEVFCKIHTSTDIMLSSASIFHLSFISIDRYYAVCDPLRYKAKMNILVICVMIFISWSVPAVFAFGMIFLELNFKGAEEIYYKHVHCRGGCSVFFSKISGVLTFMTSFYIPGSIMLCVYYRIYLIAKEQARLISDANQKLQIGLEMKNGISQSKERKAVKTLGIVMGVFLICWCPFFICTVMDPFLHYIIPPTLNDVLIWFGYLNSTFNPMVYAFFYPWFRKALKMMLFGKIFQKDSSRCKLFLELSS

[8] = biological target: T1, Trace amine-associated receptor 1; assay: Counterscreen for agonists of the human trace amine associated receptor 1 (hTAAR1): Fluorescence-based cell-based high throughput dose response assay to identify hTAAR1 agonist that also desensitize TAAR1 receptor response.; format: functional
[9] = cells; format: functional, cell-based; remark: listed apart in the source
[10] = system: Escherichia coli; assay: microbe, parasite or virus in culture
[11] = biological target: Glyceraldehyde-3-phosphate dehydrogenase (Homo sapiens, UniProt P04406)
[12] = NIH-3T3 fibroblast cytotoxicity, dose response, cytotoxicity control, cell-based, fluorescence, Alamar Blue, secondary assay (AID 2327); format: functional;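 note: NIH-3T3 mouse fibroblasts cultured with fluconazole at 8 µg/mL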
[13] = fluconazole-exposed Candida albicans growth modulators – fluorescence, retest, confirmation (AID 2467); format: functional, cell-based
[14] = biological target: Beta-galactosidase (Escherichia coli, UniProt Q8VNN2); assay: Dose response counterscreen for EBI2 assay utilizing the enzyme, b-galactosidase.; format: functional
[15] = biological target: Cytochrome P450 2C19 (Homo sapiens, UniProt P33261); assay: Cytochrome panel assay with activity outcomes. Panel member name: p450-cyp2c19 Compounds with AC50 equal or less than 10 uM are considered active; format: functional; details: read-out: AC50
[16] = biological target: T2, Cytochrome P450 1A2 (Homo sapiens, UniProt P05177);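 note: PubChem cytochrome P450 panel assay, CYP1A2 panel member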
T2 sequence (P05177 whole entry): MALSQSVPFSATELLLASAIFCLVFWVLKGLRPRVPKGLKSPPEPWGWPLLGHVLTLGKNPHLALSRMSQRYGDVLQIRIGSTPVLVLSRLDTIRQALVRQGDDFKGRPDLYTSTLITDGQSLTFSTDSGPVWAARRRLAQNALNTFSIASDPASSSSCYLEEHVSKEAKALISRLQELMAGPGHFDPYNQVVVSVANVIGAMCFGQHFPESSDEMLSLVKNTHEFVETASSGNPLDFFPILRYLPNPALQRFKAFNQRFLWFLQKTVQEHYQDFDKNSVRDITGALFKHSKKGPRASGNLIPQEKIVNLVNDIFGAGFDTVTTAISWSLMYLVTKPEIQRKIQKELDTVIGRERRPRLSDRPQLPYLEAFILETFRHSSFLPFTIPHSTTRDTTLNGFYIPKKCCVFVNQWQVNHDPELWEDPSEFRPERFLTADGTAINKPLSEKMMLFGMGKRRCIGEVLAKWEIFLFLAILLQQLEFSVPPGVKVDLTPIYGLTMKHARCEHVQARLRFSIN

[17] = HEK-293T viability loss after treatment – luminescence, T-cell screen hits, cytotoxicity control for TCR NF-kB inhibitor project, dose response (AID 489026); format: functional, cell-based;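 note: cells exposed to compound about 14 hours before the viability readout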

Sequence of Cytochrome P450 3A4 (P08684 whole entry): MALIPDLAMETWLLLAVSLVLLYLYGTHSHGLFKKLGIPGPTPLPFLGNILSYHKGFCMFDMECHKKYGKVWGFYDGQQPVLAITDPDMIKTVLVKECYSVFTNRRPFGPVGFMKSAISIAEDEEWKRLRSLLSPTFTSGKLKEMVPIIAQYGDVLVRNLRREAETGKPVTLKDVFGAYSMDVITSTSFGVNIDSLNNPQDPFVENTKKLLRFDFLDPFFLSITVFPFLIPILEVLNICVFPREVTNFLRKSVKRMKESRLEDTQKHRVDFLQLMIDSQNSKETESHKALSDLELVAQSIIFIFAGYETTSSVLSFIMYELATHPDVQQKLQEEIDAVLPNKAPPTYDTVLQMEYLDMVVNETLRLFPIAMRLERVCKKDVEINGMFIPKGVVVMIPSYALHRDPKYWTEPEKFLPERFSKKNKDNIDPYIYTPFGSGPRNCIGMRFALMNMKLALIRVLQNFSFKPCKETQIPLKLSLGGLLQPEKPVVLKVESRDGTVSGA
Sequence of Fatty acid synthase (P49327 whole entry): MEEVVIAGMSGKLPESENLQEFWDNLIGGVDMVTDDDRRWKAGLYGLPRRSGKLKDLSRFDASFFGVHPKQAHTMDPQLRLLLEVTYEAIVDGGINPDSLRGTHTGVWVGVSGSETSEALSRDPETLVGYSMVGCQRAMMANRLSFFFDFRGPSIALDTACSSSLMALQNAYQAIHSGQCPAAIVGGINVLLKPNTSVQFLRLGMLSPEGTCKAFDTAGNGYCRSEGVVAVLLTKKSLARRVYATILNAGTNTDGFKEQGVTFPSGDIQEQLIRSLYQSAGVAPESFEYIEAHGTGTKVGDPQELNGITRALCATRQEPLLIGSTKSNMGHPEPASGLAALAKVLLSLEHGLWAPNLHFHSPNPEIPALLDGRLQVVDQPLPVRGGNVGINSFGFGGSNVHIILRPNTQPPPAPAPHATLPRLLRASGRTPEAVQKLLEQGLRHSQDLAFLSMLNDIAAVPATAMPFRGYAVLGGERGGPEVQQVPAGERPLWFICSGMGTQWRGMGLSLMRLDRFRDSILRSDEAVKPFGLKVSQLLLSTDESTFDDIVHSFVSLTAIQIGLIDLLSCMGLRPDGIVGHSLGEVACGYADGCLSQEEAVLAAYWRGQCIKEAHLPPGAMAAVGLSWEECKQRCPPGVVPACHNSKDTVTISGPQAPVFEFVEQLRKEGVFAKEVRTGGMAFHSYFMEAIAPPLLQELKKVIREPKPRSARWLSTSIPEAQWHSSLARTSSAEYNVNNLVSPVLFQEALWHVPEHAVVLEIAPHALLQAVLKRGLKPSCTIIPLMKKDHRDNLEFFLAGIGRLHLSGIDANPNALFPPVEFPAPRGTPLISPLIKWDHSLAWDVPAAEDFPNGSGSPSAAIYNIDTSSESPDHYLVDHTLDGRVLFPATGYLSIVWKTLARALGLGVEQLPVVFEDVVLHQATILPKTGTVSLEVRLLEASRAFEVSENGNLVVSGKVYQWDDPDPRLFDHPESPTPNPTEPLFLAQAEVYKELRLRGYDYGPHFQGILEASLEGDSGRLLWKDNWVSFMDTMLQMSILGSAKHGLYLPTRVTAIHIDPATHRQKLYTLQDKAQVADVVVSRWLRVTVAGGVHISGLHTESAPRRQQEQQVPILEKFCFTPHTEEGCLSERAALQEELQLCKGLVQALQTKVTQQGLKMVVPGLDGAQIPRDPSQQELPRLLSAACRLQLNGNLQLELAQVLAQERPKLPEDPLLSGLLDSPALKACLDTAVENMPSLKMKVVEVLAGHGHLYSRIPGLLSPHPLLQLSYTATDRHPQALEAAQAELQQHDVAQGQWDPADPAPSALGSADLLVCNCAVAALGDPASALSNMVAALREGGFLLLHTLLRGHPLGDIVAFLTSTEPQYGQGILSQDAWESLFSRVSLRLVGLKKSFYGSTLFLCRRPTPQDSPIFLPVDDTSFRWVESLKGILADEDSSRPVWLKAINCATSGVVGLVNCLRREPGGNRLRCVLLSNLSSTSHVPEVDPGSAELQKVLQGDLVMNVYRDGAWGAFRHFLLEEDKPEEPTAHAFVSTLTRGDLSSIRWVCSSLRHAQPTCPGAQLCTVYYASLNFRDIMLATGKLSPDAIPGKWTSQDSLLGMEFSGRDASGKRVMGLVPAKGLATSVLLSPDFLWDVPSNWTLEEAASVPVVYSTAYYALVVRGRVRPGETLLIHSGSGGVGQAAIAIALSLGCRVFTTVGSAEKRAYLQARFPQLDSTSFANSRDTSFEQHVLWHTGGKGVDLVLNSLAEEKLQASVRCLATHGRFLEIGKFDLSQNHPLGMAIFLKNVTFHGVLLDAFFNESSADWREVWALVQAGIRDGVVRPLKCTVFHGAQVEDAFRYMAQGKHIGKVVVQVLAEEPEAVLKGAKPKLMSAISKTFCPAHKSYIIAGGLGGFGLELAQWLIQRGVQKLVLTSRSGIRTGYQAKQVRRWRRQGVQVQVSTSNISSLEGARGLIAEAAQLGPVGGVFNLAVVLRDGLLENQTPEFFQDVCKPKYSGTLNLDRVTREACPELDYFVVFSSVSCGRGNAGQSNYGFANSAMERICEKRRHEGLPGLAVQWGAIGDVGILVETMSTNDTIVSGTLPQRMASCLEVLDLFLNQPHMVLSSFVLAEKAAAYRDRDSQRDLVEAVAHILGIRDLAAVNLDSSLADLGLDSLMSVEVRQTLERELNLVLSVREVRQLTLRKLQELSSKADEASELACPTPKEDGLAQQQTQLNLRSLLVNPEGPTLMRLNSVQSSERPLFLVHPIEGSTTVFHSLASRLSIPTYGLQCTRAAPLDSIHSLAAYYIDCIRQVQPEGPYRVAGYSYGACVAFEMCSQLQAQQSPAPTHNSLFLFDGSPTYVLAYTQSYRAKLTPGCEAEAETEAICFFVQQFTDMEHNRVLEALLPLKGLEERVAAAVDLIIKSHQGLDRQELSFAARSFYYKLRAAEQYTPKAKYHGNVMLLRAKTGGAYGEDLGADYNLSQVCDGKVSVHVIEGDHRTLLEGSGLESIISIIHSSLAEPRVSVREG
Sequence of Cytochrome P450 2C19 (P33261 whole entry): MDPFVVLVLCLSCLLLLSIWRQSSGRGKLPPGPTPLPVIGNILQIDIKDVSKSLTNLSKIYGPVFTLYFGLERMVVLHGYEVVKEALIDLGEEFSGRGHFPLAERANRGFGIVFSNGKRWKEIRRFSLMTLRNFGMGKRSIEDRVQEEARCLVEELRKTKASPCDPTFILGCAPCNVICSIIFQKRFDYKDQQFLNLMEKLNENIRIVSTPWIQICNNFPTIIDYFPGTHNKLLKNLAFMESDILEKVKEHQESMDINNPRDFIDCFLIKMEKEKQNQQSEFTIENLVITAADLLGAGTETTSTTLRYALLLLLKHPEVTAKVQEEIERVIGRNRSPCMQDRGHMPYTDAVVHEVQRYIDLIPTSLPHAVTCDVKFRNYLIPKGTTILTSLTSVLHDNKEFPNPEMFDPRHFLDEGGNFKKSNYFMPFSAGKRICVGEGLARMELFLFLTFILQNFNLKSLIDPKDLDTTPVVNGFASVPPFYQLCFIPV
Sequence of Cytochrome P450 2C9 (P11712 whole entry): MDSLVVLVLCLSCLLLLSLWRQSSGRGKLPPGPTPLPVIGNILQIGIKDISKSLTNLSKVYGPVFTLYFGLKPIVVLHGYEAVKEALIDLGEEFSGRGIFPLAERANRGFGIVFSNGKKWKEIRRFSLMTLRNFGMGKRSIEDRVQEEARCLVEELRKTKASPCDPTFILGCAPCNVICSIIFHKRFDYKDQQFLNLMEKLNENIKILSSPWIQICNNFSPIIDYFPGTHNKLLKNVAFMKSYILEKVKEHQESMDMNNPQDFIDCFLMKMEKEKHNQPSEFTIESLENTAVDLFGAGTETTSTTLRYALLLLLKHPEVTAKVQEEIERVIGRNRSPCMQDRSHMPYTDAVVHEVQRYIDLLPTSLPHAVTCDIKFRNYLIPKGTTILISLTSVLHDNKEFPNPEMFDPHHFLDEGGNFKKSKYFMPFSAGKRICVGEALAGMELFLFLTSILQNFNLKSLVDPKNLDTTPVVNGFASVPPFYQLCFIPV
Sequence of Beta-galactosidase (Q8VNN2 whole entry): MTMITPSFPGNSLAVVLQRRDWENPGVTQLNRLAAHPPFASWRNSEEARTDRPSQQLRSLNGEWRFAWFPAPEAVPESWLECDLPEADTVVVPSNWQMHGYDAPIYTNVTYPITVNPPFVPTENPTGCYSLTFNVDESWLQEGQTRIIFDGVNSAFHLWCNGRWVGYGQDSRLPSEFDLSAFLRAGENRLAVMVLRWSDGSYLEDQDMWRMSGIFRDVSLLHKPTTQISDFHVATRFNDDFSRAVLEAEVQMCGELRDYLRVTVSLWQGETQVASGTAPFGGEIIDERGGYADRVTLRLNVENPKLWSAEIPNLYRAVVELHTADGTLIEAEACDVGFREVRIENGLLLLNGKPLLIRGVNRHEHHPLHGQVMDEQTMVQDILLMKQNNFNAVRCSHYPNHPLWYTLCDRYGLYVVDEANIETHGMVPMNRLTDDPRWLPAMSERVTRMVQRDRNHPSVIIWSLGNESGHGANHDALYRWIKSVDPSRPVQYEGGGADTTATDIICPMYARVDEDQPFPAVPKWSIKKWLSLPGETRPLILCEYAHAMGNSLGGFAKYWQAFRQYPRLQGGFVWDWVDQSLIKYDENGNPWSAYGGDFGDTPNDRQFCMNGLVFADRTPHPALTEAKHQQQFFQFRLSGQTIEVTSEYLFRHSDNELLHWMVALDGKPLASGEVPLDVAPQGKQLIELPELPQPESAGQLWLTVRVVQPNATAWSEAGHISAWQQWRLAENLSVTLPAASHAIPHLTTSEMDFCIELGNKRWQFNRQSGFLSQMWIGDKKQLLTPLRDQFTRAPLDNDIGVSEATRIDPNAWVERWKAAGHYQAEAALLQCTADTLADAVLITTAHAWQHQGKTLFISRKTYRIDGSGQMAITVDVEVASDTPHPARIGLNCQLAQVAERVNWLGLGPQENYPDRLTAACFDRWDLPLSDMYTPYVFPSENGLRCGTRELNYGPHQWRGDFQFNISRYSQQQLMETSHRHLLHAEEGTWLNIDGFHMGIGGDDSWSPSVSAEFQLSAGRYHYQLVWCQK

SMILES: COc1ccc(Cl)c(OC)c1C(=O)NC(=O)Nc1c(F)cc(F)cc1F
EC50 [1]: > 350 µM (not active)
EC50 [2]: > 350 µM (not active)

IC50 [3]: 12.4 µM (active)
SMILES: COCc1cc(C)nc(SCC[N+](C)(C)CC(=O)Nc2ccccc2)c1C#N

AC50 [4]: inconclusive
AC50 [5]: inconclusive
SMILES: C[C@H]1CCCC=CC2C[C@H](OC(=O)CN(C)C)C[C@@H]2[C@@H](O)/C=C\C(=O)O1 (stereo partly drawn)

SMILES: COc1ccc(N2CCN(C(=O)C3COc4ccccc4O3)CC2)cc1 (stereo not drawn)
EC50 [1]: > 350 µM (not active)
EC50 [2]: > 350 µM (not active)

AC50 [4]: inconclusive
SMILES: COc1ccc(NC(=O)N2CCC3(CC2)CCN(C(=O)c2cccn2C)CC3)cc1

SMILES: Cc1cc(C)c2cc(C#N)c(N3CCNCC3)nc2c1
IC50 [6]: > 30 µM (inactive)
EC50 [7]: 1.55 µM (active)
IC50 [8]: 4.28 µM (active)
EC50 [9]: > 30 µM (inactive)

SMILES: CC(C)N(C(C)C)S(=O)(=O)c1ccc(N2CCc3ccccc3C2)nc1
EC50 [1]: > 350 µM (not active)
EC50 [2]: > 350 µM (not active)

SMILES: CCOc1ccc(NC(=O)c2ccc(NC(=O)c3cn4c5c(c(N6CCN(C)CC6)c(F)cc5c3=O)OCC4C)cc2)cc1 (stereo not drawn)
AC50 [10]: 0.645 µM (active)

IC50 [11]: > 100 µM (not active)
SMILES: COC(=O)C1Nc2cc(C(F)(F)F)ccc2S(=O)(=O)N1 (stereo not drawn)

SMILES: COc1ccccc1N1CCN(C(=O)c2cc3cc(Cl)ccc3[nH]2)CC1
EC50 [12]: 38.6 µM (active)
EC50 [13]: > 38 µM (not active)
IC50 [14]: > 80 µM (inactive)

SMILES: O=C(c1nc(C(F)(F)F)[nH]c1-c1ccccc1)N1CCc2ccccc2C1
IC50 [6]: > 29.9 µM (inactive)
EC50 [7]: 2.77 µM (active)
IC50 [8]: 9.85 µM (active)
EC50 [9]: > 29.9 µM (inactive)

AC50 [15]: 15.8 µM (inconclusive)
AC50 [16]: 15.8 µM (inconclusive)
AC50 [4]: inconclusive
SMILES: O=C(Oc1ccccc1)N1CCC2(CC1)CN(c1ccccc1)C2

SMILES: CC(C)Nc1ccc(C(CC(N)=O)NC(=O)c2ccc(Br)cc2)cc1[N+](=O)[O-] (stereo not drawn)
IC50 [17]: > 80 µM (inactive)

SMILES: CCCNC(=O)c1cn(CC)c2cc(N3CCN(C)CC3)c(F)cc2c1=O
AC50 [10]: 2.04 µM (active)
